{"source": "paper PMC13039201", "about": "(Scientific Reports, 2026)", "key": {"HA": {"molecular_target": "HA", "conditions": "read-out: KD reported in the literature; cited from earlier work"}, "[1]": {"molecular_target": "HA captured from plasma (ACLF patients, CTRL) (Homo sapiens, UniProt P02768)", "sequence (P02768 25-609)": "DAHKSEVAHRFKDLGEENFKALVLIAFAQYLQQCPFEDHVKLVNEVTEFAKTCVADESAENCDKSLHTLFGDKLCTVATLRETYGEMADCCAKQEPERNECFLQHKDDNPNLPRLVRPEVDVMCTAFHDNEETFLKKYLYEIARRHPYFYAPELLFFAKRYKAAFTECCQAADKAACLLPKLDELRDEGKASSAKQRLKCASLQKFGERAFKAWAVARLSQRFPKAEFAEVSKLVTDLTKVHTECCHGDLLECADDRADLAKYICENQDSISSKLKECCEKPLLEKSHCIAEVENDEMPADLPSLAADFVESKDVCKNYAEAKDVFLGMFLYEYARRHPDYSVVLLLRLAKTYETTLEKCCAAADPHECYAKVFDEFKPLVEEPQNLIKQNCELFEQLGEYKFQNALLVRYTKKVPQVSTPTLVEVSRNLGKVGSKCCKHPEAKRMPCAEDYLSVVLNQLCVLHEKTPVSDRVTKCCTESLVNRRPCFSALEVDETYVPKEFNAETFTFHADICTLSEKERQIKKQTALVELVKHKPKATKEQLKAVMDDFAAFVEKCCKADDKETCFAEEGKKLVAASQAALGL", "assay_type": "binding", "conditions": "ACLF n = 6 vs CTRL n = 6, Student's t-test on KD values"}, "[2]": {"molecular_target": "Human serum albumin (HA), commercial HA (Homo sapiens, UniProt P02768)", "sequence (P02768 25-609)": "as above"}, "[3]": {"molecular_target": "HA captured from plasma (T2DM-DKD, T2DM+DKD) (Homo sapiens, UniProt P02768)", "sequence (P02768 25-609)": "as above", "assay_type": "binding", "conditions": "n = 10 each, KD values"}, "anti-HA antibody": {"tested_on": "anti-HA antibody", "assay": "SPR injection on the bare anti-HA sensor chip without any immobilized HA", "assay_type": "binding, rabbits"}}, "note": "Where two headings read alike, the source gives them in different places.", "data": [{"compound": "CCCCC1C(=O)N(c2ccccc2)N(c2ccccc2)C1=O", "note": "[PBZ, phenylbutazone]", "values": [{"measurement": "Kd", "setting": "HA", "value": "0.12 to 3.3", "unit": "µM"}]}, {"compound": "CN(C)c1cccc2c(S(=O)(=O)N[C@@H](Cc3ccccc3)C(=O)O)cccc12", "note": "[DPA, dansyl-L-phenylalanine]", "values": [{"measurement": "affinity of HA from ACLF patients compared with HA from CTRL subjects", "setting": "[1]", "value": "no significant differences"}, {"measurement": "Kd", "setting": "HA", "value": 6, "unit": "µM"}, {"measurement": "Kd", "setting": "[2]; commercial HA captured on chip, steady state 1:1 model, 25 °C, validation", "value": "1.7 ± 0.3", "unit": "µM"}]}, {"compound": "teicoplanin", "values": [{"measurement": "affinity of HA from ACLF patients compared with HA from CTRL subjects", "setting": "[1]", "value": "reduced its binding affinity"}, {"measurement": "binding capacity of HA in T2DM + DKD patients compared with T2DM-DKD", "setting": "[3]", "value": "did not significantly affect"}]}, {"compound": "COc1ccc2c3c1O[C@H]1C[C@@H](O)C=C[C@@]31CCN(C)C2", "note": "[galantamine]", "values": [{"measurement": "interaction with HA (negative control)", "setting": "[2]; 0.370-30.0 µM, 10 µL/min, 60 s", "value": "no interaction"}]}, {"compound": "C=CC1=C(C)/C(=C/C2=NC(=C\\c3[nH]c(/C=C4\\NC(=O)C(C)=C4C=C)c(C)c3CCC(=O)O)/C(CCC(=O)O)=C2C)NC1=O", "note": "[BVD, biliverdin]", "values": [{"measurement": "interactions with the anti-HA antibody", "setting": "anti-HA antibody", "value": "significant interactions"}, {"measurement": "affinity of HA from ACLF patients compared with HA from CTRL subjects", "setting": "[1]", "value": "no significant differences"}, {"measurement": "Kd", "setting": "[2]", "value": "13 ± 3", "unit": "µM"}]}]}
